For test [1], the system named is WIL-FL C214S. Nature of the test: Thioflavin T aggregation kinetics. The format is biochemical, human. Conditions: thioflavin T fluorescence. As to the method: Aggregation. WIL C214S was dialyzed into ddH2O and filtered. Each 1 ml reaction contained 10 μM LC, ddH2O, 1% DMSO or 200 μM 1 in 1% DMSO, 150 mM NaCl, and ABC buffer (20 mM sodium acetate, 20 mM boric acid, 20 mM sodium citrate, pH 5 with HCl). Components are listed in the order they were added.
Thioflavin T (ThT)-containing aggregation reactions were set up in 96-well plates with similar conditions used for the reactions described above, except each 100 μl reaction also contained 2 μM ThT. Aggregation was induced with shaking as previously described (4). In total, 21 replicates for both vehicle and 1, over four independent experiments (plates) were performed.
WIL-FL C214S aggregates upon vigorous stirring at or below pH 5 to form heterogenous aggregate structures. […] This may be because a given LC can stochastically form different aggregate structures with different kinetics.

For test [2], the system named is κ1-33 LCs (AL12-FL, κ I O18/O8-FL). Put plainly: Fluorogenic coumarin titration, κ1-33 LCs. The settings on record: 1 at 1 μM. The format is binding, human. The procedure: (§1) Fluorogenic coumarin titration. LCs were concentrated to 200 μM in centrifugal concentrators with a 10 kDa membrane, unless the available material was limiting. […] Fluorescence of 1 was measured on a Gemini plate reader (Molecular Devices) using an excitation wavelength of 373 nm and emission wavelength of 445 nm. Data were normalized platewise to the plateau fluorescence value for WIL-FL to calculate the fraction of 1 bound.
Of the two classes of human LCs, λ and κ, λ LCs are more commonly observed in AL, but a fraction of patients secrete κ1-33 LCs (12, 33). […] Recombinant expression of these κ1-33 LCs using a similar protocol to that used for λ6-57 LCs yielded both monomeric and dimeric LCs, as shown by SV-AUC (SI Appendix FIG. S7). […] Binding of an excess of κ1-33 LCs (20 μM) to 1 (1 μM) afforded FL LC•1 fluorescence (FIG. 2f, inset).

For test [3], the target named is T1, WIL-FL* (Homo sapiens, UniProt P01721, K101C, form not given). Put plainly: Protease-coupled fluorescence polarization (PCFP) assay with proteinase K. The settings on record: secondary screen, mean ± sd, n=3; 6.75 μM compound; FP retention after 24 h at 22° C., normalized to high and low controls.
Test [4] has as its target T1, WIL-FL*. Nature of the test: PCFP assay with thermolysin. The settings on record: mean ± sd, n=3; 6.75 μM compound.
Method: Thirdly, to remove molecules that inhibit proteinase K, the assay was repeated in triplicate using 100 nM thermolysin (Thermo). […] The additional metal ions were added to bind to ion-chelating small molecules and prevent them from inhibiting the metalloproteinase.
To identify and exclude molecules that interfered with FP measurements, the assay was repeated, but candidate stabilizers were not added until after 24 h of PK treatment (FIG. 1f). […] Thermolysin is a broad-spectrum metalloprotease that is likely not inhibited by compounds that inhibit PK, a serine protease.
Test [5] deals with JTO-V (Homo sapiens, UniProt P01721). Put plainly: NMR ZZ-exchange experiment. The class given is binding. Conditions: JTO-V2•1 complex. As to the method:
Chemical exchange saturation transfer (CEST) experiments were acquired on WIL-V samples at 0.4 mM in the presence of 0.2 or 0.3 mM 1 using a multi-site excitation scheme (16). […] Further details of the analysis of these experiments are given in the Supplemental NMR Analysis described below.

Test [6] concerns the target human serum albumin (HSA) (Homo sapiens, UniProt P02768). Nature of the test: Binding of 1 to albumin by fluorescence of 1. The text has this: Therefore, kinetic stabilizer binding selectivity to FL LCs in preference to other plasma proteins is important to minimize the proportion of free FL LC. Albumin binds many small molecules in blood, typically with μM KD values.

The target of test [7] is WIL-FL (Homo sapiens, UniProt P01721). Nature of the test: PK proteolysis of unlabeled WIL-FL by SDS-PAGE. Conditions: WIL-FL 10 μM, small molecule 100 μM, t=2 h.
Method: The experiment in FIG. 1b measured simultaneous proteolysis of labeled and unlabeled LC by adding 20 nM WIL-FL* or JTO-FL* to 5 μM WIL-FL or JTO-FL, respectively. Fluorescein fluorescence images of the SDS-PAGE gels were recorded, after which the gels were Coomassie stained and imaged.
Test [8] relates to isolated V-domains from WIL, ALMC2 and 6aJL2. Put plainly: Fluorogenic coumarin titration, isolated V-domains. Conditions: 1 at 1 μM. The class given is binding, human. As to the method: as §1
(§2) A successful kinetic stabilizer should, but is not required to, bind to and stabilize patient LCs with a vast range of sequences (30, 31). To ask whether 1 can stabilize other FL LC sequences, we measured binding of 1 to three more recombinant λ6-57 FL LC disulfide-linked dimers: JTO-FL; ALMC2-FL, an AL-associated LC sequence derived from the ALMC2 cell line (32); and the germline sequence 6aJL2-FL.

The target of test [9] is T2, isolated λ3 C-domain (Homo sapiens, UniProt P0DOY3).
T2 construct: made in house; host or cells: E. coli
Put plainly: Fluorogenic coumarin titration. The format is binding. The settings on record: 1 at 1 μM.

Test [10] deals with WIL-FL and JTO-FL variants with F98D mutation. Nature of the test: Fluorogenic coumarin titration, F98D variants. The settings on record: 1 at 1 μM; presence or absence of the C214 inter-chain disulfide bond. The class given is binding, human. The procedure:
as §1
To further test the hypothesis that 1 binds at the interface between the V-domains, we measured binding of 1 to WIL-FL and JTO-FL variants with mutations designed to disrupt the dimer (22). The F98D mutation, which disrupts the V-domain-V-domain interface, rendered binding of 1 (1 μM) undetectable in the presence or absence of the C214 inter-chain disulfide bond (FIG. 2d, right panel).

In test [11] the test system is WIL-FL and JTO-FL with residue 46 mutated to leucine. Nature of the test: Fluorogenic coumarin titration, residue 46 to leucine variants. The format is binding, human. The text has this:
The residues used by JTO to bind 1 are highly conserved (FIG. 3d). Residues Y36, P44, Y87 and F98 are present in 88, 99, 95 and 100% of all human germline LC genes, respectively, whereas T46 is only present in two functional germline genes.

Test [12] has as its system LCs with C214S mutation. Nature of the test: Fluorogenic coumarin titration, C214S LCs. The format is binding, human. Conditions: 1 at 1 μM. The procedure:
as §1, §2

Test [13] concerns the target WIL-V (Homo sapiens, UniProt P01721). Nature of the test: Sedimentation velocity analytical ultracentrifugation (SV-AUC). Conditions: LC 20 μM, 1 at 100 μM. The procedure: Analytical Ultracentrifugation (AUC). […] Sedimentation was measured by absorbance at 280 nm. Data were processed using SedFit (6).
Test [14] deals with WIL-FL*. Nature of the test: FP artefact counterscreen (compounds added after 24 h of proteinase K treatment). The class given is biochemical, human. The settings on record: compound added after 24 h PK treatment; mean ± sd, n=3. The procedure:
Secondly, to remove compounds that interfere with the FP measurement, the primary screen was repeated in triplicate but compounds were added after 24 h of proteinase K treatment (FIG. 1f). […] Bona fide hits should retain no FP beyond the low control.
(In general: The purpose of a counterscreen is to sort out artefacts and off-target activity.)

These results are taken from patent US11945806B2, “Stabilization of amyloidogenic immunoglobulin light chains” (The Scripps Research Institute, priority 2019, dated 2024).

As a reminder, the Kd is the equilibrium constant for the complex coming apart. Read a low Kd as higher affinity.

human serum albumin (HSA), sequence (P02768 25-609): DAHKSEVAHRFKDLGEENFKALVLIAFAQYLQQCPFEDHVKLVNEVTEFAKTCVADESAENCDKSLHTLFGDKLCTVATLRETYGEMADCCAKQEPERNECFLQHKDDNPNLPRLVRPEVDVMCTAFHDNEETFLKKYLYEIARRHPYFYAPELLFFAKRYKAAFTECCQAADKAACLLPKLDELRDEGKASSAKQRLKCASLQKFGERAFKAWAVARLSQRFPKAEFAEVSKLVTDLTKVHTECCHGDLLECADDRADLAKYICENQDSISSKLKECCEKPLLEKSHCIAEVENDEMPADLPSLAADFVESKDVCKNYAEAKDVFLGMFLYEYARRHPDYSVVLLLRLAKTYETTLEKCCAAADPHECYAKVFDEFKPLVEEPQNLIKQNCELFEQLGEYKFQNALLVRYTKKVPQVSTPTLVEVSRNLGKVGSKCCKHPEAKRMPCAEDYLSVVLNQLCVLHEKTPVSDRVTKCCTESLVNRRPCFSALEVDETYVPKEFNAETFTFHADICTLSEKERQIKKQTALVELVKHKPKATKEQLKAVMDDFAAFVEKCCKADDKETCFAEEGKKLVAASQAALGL

Take `CCN(CC)c1ccc2c(C)cc(=O)oc2c1` [Compound 1, 7-diethylamino-4-methylcoumarin]: the “rate of aggregation versus vehicle control” value in test [1] is recorded as “decreases the rate of aggregation significantly”. Moreover, the “binding of 1” value in [2] is “weaker than binding to λ6-57 LCs”; in test [9] it was “No binding”; in test [10], “undetectable”. In addition, the “PK activity (%)” value in [3] is on record as 47.8 ± 0.7%. The “Thermolysin activity (%)” value in test [4] was 36.4 ± 2.0%. Also, the off-rate in [5] was determined as 57 ± 2 s⁻¹. Moreover, in [6], the Kd was determined as 37 ± 3 µM. Also, in test [6] (100 μM diflunisal), the “affinity of 1 for albumin in the presence of diflunisal” value is given as “reduced”. Further, the “protection of WIL-FL against PK proteolysis” value in test [7] is recorded as “protects this FL LC against PK proteolysis”. The “affinity for 1” value in test [8] was “reduced affinity”. In addition, in test [11], the “binding affinity of 1” value is recorded as “slightly enhances the binding affinity”. For the same compound, the “affinity of LCs for 1” value in test [12] is reported as “reduces the affinity”. Besides, the “size distribution (SV-AUC)” value in [13] was “increase”. Besides, in [14], the “Counterscreen activity (%)” value is reported as −8.07 ± 3.3%.
